These compounds were tested against human BLT1 receptor (Homo sapiens (Human), UniProt Q15722) (assay: BLT-1 cAMP Assay). Settings: antagonist mode; HEK293 cells recombinantly expressing human BLT1 receptor; forskolin 4 μM and LTB4 2 nM; cAMP detection.
human BLT1 receptor, sequence (Q15722 whole entry): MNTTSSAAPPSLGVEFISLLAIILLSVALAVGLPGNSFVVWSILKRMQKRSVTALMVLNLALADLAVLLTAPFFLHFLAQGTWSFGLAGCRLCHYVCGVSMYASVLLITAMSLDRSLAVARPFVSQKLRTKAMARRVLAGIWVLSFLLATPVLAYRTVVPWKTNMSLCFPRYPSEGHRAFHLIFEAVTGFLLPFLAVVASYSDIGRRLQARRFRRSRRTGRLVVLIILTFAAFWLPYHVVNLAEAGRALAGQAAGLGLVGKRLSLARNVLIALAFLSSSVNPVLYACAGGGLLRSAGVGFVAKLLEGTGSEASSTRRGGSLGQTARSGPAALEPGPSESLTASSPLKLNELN
Assay type: cell-based
Procedure: The ability of compounds to antagonize the human BLT1 receptor was determined using a kit to measure changes in intracellular cyclic AMP levels (cAMP dynamic assay kit, Cisbio Cat. No. 62AM4PEC). HEK293 cells recombinantly expressing human BLT1 receptor, previously frozen in Recovery Medium (Life Technologies, Cat. No. 12648-010) were thawed and diluted into assay medium (HBSS (Hyclone SH 30268.01), 20 mM HEPES (Gibco 15630-106), 800 μM IBMX (Sigma I5879), 0.1% DTPA BSA (Perkin Elmer CR84-100)). The cell suspension was centrifuged at 200×g for 10 min and then resuspended in fresh assay medium to a density of 2.5×10^5 cells/mL. A Labcyte Echo 550 acoustic dispenser was used to transfer 25 nL of test compound dissolved in DMSO into the wells of a dry 384-well plate (Greiner 784075). All subsequent liquid additions were performed using a BIORAPTR (FRD; Beckman Coulter). Next, 5 μL of cell suspension was added and incubated for 20 min. at 37° C. and 5% CO2 in a humidified plastic tray. To test for agonist activity […] of assay buffer containing forskolin (Sigma F-6886. 4 μM for BLT1) was added and incubated for 30 minutes at 37° C. and 5% CO2 in a humidified plastic tray. To test for antagonist activity 5 μL of assay buffer containing forskolin (Sigma F-6886. 4 μM for BLT1) and either LTB4 (Sigma Aldrich L0517; 2 nM BLT1) was added and incubated for 30 minutes at 37° C. and 5% CO2 in a humidified plastic tray.
The levels of cAMP were detected using the CisBio kit following the manufacturer's instructions: cAMP-d2 vial was reconstituted with distilled water and then diluted accordingly with conjugate & lysis buffer. 5 μL of cAMP-d2 working solution was added to all of the wells of the assay plate. cAMP-Cryptate vial was reconstituted with distilled water and then diluted accordingly with conjugate & lysis buffer. 5 μL of cAMP-Cryptate working solution were added to the assay plate. The assay plate was shaken for 3 minutes and incubated at room temperature for 45 minutes, then read on Perkin Elmer Envision. cAMP standard curve and fit data were plotted using a 4 parameter dose response curve fitting algorithm to fit curve. A 4-parameter curve fit (Max, min, log EC50 and slope) was used to transform fluorescent 665 nm/615 nm ratio signal to cAMP concentration. After normalization to treated and untreated controls, the percent effect of signal at each compound concentration was calculated. The plot of percent effect versus the log of compound concentration was fit with a 4-parameter concentration response equation to calculate EC50 values. Compound concentrations tested were 10 000, 3 333, 1 111, 370.4, 123.4, 41.2, 13.7, 4.6, 1.5 and 0.5 nM with 0.25% residual DMSO.
With O=C(NS(=O)(=O)C1CC1)c1ccccc1-c1ccc2c(c1)OC[C@H](Cc1ccccc1)[C@H]2O (single isomer, unassigned) [Example 24, 2-((3S,4R or 3R,4S)-3-Benzyl-4-hydroxychroman-7-yl)-N-(cyclopropylsulfonyl)benzamide] the EC50 was 17 nM. CC1(S(=O)(=O)NC(=O)c2ccccc2-c2ccc3c(c2)OC[C@@H](Cc2ccccc2)[C@@H]3O)CC1 (single isomer, unassigned) [Example 21, 2-((3R,4S or 3S,4R)-3-Benzyl-4-hydroxychroman-7-yl)-N-((1-methylcyclopropyl)sulfonyl)benzamide] gave an EC50 of 2040 nM. CS(=O)(=O)NC(=O)c1ccc(F)cc1-c1ccc2c(c1)OC[C@@H](Cc1ccccn1)[C@@H]2O (single isomer, unassigned) [Example 3, 4-Fluoro-2-((3R,4S or 3S,4R)-4-hydroxy-3-(pyridin-2-ylmethyl)chroman-7-yl)-N-(methylsulfonyl)benzamide] gave an EC50 of 1720 nM. With Cn1nccc1C[C@@H]1COc2cc(-c3ccccc3C(=O)NS(=O)(=O)C3(C)CC3)ccc2[C@H]1O (racemic) [Example 28, 2-(Rac-trans)-4-Hydroxy-3-((1-methyl-1H-pyrazol-5-yl)methyl)chroman-7-yl)-N-((1-methylcyclopropyl)sulfonyl)benzamide] the EC50 was 360 nM. With O=C(NS(=O)(=O)C(F)(F)F)c1ccc(F)cc1-c1ccc2c(c1)OC[C@@H](Cc1ccccn1)[C@@H]2O (single isomer, unassigned) [Example 1, 4-Fluoro-2-((3R,4S or 3S,4R)-4-hydroxy-3-(pyridin-2-ylmethyl)chroman-7-yl)-N-((trifluoromethyl)sulfonyl)benzamide] the EC50 was 650 nM. For CCn1nccc1C[C@H]1COc2cc(-c3ccccc3C(=O)NS(=O)(=O)C(C)(C)C)ccc2[C@@H]1O (single isomer, unassigned) [Example 37, N-(tert-Butylsulfonyl)-2-((3S,4R or 3R,4S)-3-((1-ethyl-1H-pyrazol-5-yl)methyl)-4-hydroxychroman-7-yl)benzamide], the EC50 was 36 nM. With CC(C)(C)S(=O)(=O)NC(=O)c1ccc(F)cc1-c1ccc2c(c1)OC[C@H](Cc1ccccn1)[C@H]2O (single isomer, unassigned) [Example 14, N-(tert-Butylsulfonyl)-4-fluoro-2-((3S,4R or 3R,4S)-4-hydroxy-3-(pyridin-2-ylmethyl)chroman-7-yl)benzamide] the EC50 was 2 nM. For O=C(NS(=O)(=O)CC1CC1)c1ccccc1-c1ccc2c(c1)OCC(Cc1ccccn1)C2O (stereo not drawn) [Example 18, N-((Cyclopropylmethyl)sulfonyl)-2-((3,4-trans)-4-hydroxy-3-(pyridin-2-ylmethyl)chroman-7-yl)benzamide], the EC50 was 23 nM. For CS(=O)(=O)NC(=O)c1ccc(F)cc1-c1ccc2c(c1)OC[C@H](Cc1ccccn1)[C@H]2O (single isomer, unassigned) [Example 4, 4-Fluoro-2-((3S,4R or 3R,4S)-4-hydroxy-3-(pyridin-2-ylmethyl)chroman-7-yl)-N-(methylsulfonyl)benzamide], the EC50 was 93 nM. For CC(C)CS(=O)(=O)NC(=O)c1ccccc1-c1ccc2c(c1)OCC(Cc1ccccn1)C2O (stereo not drawn) [Example 17, 2-((3,4-trans)-4-Hydroxy-3-(pyridin-2-ylmethyl)chroman-7-yl)-N-(isobutylsulfonyl)benzamide], the EC50 was 24 nM. For O=C(NS(=O)(=O)C1CCCC1)c1ccccc1-c1ccc2c(c1)OCC(Cc1ccccn1)C2O (stereo not drawn) [Example 19, N-(Cyclopentylsulfonyl)-2-((3,4-trans)-4-hydroxy-3-(pyridin-2-ylmethyl)chroman-7-yl)benzamide], the EC50 was 48 nM. For CC(C)(C)S(=O)(=O)NC(=O)c1ccccc1-c1ccc2c(c1)OC[C@H](Cc1ccccn1)[C@H]2O (single isomer, unassigned) [Example 12, N-(tert-Butylsulfonyl)-2-((3S,4R or 3R,4S)-4-hydroxy-3-(pyridin-2-ylmethyl)chroman-7-yl)benzamide], the EC50 was 17 nM. CC(C)(C)S(=O)(=O)NC(=O)c1ccccc1-c1ccc2c(c1)OC[C@H](Cc1cscn1)[C@H]2O (single isomer, unassigned) [Example 34, N-(tert-Butylsulfonyl)-2-((3S,4R or 3R,4S)-4-hydroxy-3-(thiazol-4-ylmethyl)chroman-7-yl)benzamide] was tested, and the EC50 was 9 nM. Cn1nccc1C[C@@H]1COc2cc(-c3ccccc3C(=O)NS(=O)(=O)C(C)(C)C)ccc2[C@H]1O (racemic) [Example 35, N-(tert-Butylsulfonyl)-2-((rac-trans)-4-hydroxy-3-((1-methyl-1H-pyrazol-5-yl)methyl)chroman-7-yl)benzamide] showed an EC50 of 95 nM. CC1(S(=O)(=O)NC(=O)c2ccccc2-c2ccc3c(c2)OC[C@@H](Cc2coc(-c4ccccc4)n2)[C@@H]3O)CC1 (racemic) [Example 43, 2-(Rac-trans)-4-hydroxy-3-((2-phenyloxazol-4-yl)methy)chroman-7-yl)-N-((1-methylcyclopropyl)sulfonyl)benzamide] showed an EC50 of 19 nM. Compound O=C(NS(=O)(=O)C(F)(F)F)c1ccc(F)cc1-c1ccc2c(c1)OC[C@H](Cc1ccccn1)[C@H]2O (single isomer, unassigned) [Example 2, 4-Fluoro-2-((3S,4R or 3R,4S)-4-hydroxy-3-(pyridin-2-ylmethyl)chroman-7-yl)-N-((trifluoromethyl)sulfonyl)benzamide] has an EC50 of 6 nM. CC1(S(=O)(=O)NC(=O)c2ccccc2-c2ccc3c(c2)OC[C@@H](Cc2ccccn2)[C@@H]3O)CC1 (single isomer, unassigned) [Example 7, 2-((3R,4S or 3S,4R)-4-Hydroxy-3-(pyridin-2-ylmethyl)chroman-7-yl)-N-((1-methylcyclopropyl)sulfonyl)benzamide] was tested, and the EC50 was 1270 nM. In the case of CC(C)(C)S(=O)(=O)NC(=O)c1ccccc1-c1ccc2c(c1)OC[C@H](Cc1coc(-c3ccccc3)n1)[C@H]2O (single isomer, unassigned) [Example 48, N-(tert-Butylsulfonyl)-2-((3S,4R or 3R,4S)-4-hydroxy-3-((2-phenyloxazol-4-yl)methyl)chroman-7-yl)benzamide], the EC50 is reported as 5 nM. In the case of CC1(S(=O)(=O)NC(=O)c2ccc(F)cc2-c2ccc3c(c2)OC[C@@H](Cc2ccccn2)[C@@H]3O)CC1 (single isomer, unassigned) [Example 10, 4-Fluoro-2-((3R,4S or 3S,4R)-4-hydroxy-3-(pyridin-2-ylmethyl)chroman-7-yl)-N-((1-methylcyclopropyl)sulfonyl)benzamide], the EC50 is reported as 870 nM. Compound CC1(S(=O)(=O)NC(=O)c2ccccc2-c2ccc3c(c2)OCC(Cc2coc(-c4ccccc4)n2)C3O)CC1 (racemic) [Example 46, 2-(Rac-trans)-4-Hydroxy-3-((2-phenyloxazol-4-yl)methyl)chroman-7-yl)-N-((1-methylcyclopropyl)sulfonyl)benzamide] has an EC50 of 15 nM. O=C(NS(=O)(=O)C1CC1)c1ccccc1-c1ccc2c(c1)OC[C@H](Cc1ccccn1)[C@H]2O (single isomer, unassigned) [Example 6, N-(Cyclopropylsulfonyl)-2-((3S,4R or 3R,4S)-4-hydroxy-3-(pyridin-2-ylmethyl)chroman-7-yl)benzamide] gave an EC50 of 28 nM. For CCn1nccc1C[C@@H]1COc2cc(-c3ccccc3C(=O)NS(=O)(=O)C(C)(C)C)ccc2[C@H]1O (single isomer, unassigned) [Example 38, N-(tert-Butylsulfonyl)-2-((3R,4S or 3S,4R)-3-((1-ethyl-1H-pyrazol-5-yl)methyl)-4-hydroxychroman-7-yl)benzamide], the EC50 was 1160 nM. CC1(S(=O)(=O)NC(=O)c2ccccc2-c2ccc3c(c2)OC[C@H](Cc2cscn2)[C@H]3O)CC1 (racemic) [Example 25, 2-(Rac-trans)-4-Hydroxy-3-(thiazol-4-ylmethyl)chroman-7-yl)-N-((1-methylcyclopropyl)sulfonyl)benzamide] gave an EC50 of 16 nM. With O=C(NS(=O)(=O)C1CC1)c1ccc(F)cc1-c1ccc2c(c1)OC[C@H](Cc1ccccn1)[C@H]2O (single isomer, unassigned) [Example 16, N-(Cyclopropylsulfonyl)-4-fluoro-2-((3S,4R or 3R,4S)-4-hydroxy-3-(pyridin-2-ylmethyl)chroman-7-yl)benzamide] the EC50 was 4 nM.

— US10336733B2, “Aryl acylsulfonamides as BLT1 antagonists” (Merck Sharp & Dohme Corp., priority 2015, dated 2019)
